Measured values as given in publication PMC10419416, “Fighting Pseudomonas aeruginosa Infections: Antibacterial and Antibiofilm Activity of D-Q53 CecB, a Synthetic Analog of a Silkworm Natural Cecropin B Variant” (International Journal of Molecular Sciences, 2023).
Converted amounts (≈) assume the structure as drawn. Read-outs that look alike come from different tables or passages of the source.

Legend:
[1] = tested on: P. aeruginosa ATCC 27853, non-mucoid strain; type: cell-based, Pseudomonas aeruginosa; conditions: for biofilm biomass vs untreated controls (biofilm formation): 24 h
Protocol: (§1) An ON bacterial culture was diluted to 2 × 10^6 cells/mL in an LB medium. 50 µL/well were seeded in a sterile non-treated polystyrene 96-well plate (Corning) and added with 50 µL LB medium containing serial dilutions of each compound (final concentrations of L- and D-Q53 CecB peptides: from 0.034 to 17.6 µM; final concentrations of tobramycin: 0.27 and 0.53 μM, and from 2.14 to 17 μM). Each condition was tested in three-six replicates. Wells containing untreated bacteria (negative controls) or LB medium only (blank) were followed in parallel. Each plate was incubated for 24 h at 37 °C without agitation. After washing twice, samples were stained with a 0.1% crystal violet solution for 20 min, washed three times, and incubated in 30% acetic acid for 20 min, as in [74]. Plates were read at 595 nm using a microplate reader. For each sample, the biofilm biomass percentage was calculated relative to that of the untreated control showing the highest OD value, set equal to 100%. Each experiment was performed at least twice.

[2] = tested on: P. aeruginosa ATCC 25668, mucoid strain; type: cell-based, Pseudomonas aeruginosa; conditions: for biofilm biomass vs untreated controls (biofilm formation): 24 h
Protocol: as §1

[3] = tested on: P. aeruginosa ATCC 27853, non-mucoid strain; assay: Degradation of pre-formed 24 h old biofilm, crystal violet; type: cell-based, Pseudomonas aeruginosa; conditions: 1 h; L-Q53 CecB 1/2 to 8 MIC, tobramycin 1 to 8 MIC
Protocol: (§2) One hundred μL of bacteria (1 × 10^6 cells/mL), derived from a fresh ON culture, were seeded in a sterile non-treated polystyrene 96-well plate (Corning) and incubated for 24 h at 37 °C without agitation. […] Evaluation of biofilm biomass was performed using a crystal violet assay as described above (Section 4.8). Experiments were performed two-four times.

[4] = tested on: P. aeruginosa ATCC 25668, mucoid strain; assay: as above; type: cell-based, Pseudomonas aeruginosa; conditions: 1 h; L-Q53 CecB 1/2 to 8 MIC (except 4 MIC), tobramycin 1 to 8 MIC
Protocol: as §2

[5] = tested on: P. aeruginosa ATCC 27853 and ATCC 25668 strains; assay: microbe, parasite or virus in culture; type: cell-based, Pseudomonas aeruginosa; conditions: Pseudomonas aeruginosa, 24 h
Protocol: (§3) The following strains were used: P. aeruginosa ATCC 27853, ATCC 25668, and PAO1-L (Lausanne subline). All strains were grown at 37 °C in Luria Bertani (LB) medium or in Luria Bertani Agar (LBA) plates.
(§4) The antibacterial activities of L- and D-Q53 CecB were evaluated by determining (i) the MIC and (ii) the MBC. Tobramycin (Merck) was used as an antibiotic control. (i) An overnight (ON) bacterial culture was diluted to 1 × 10^6 cells/mL in LB medium. 50 µL/well were seeded in sterile polypropylene 96-well plates (Corning, Corning, NY, USA) and added with 50 µL LB medium, containing serial dilutions of each compound (final concentrations of L- and D-Q53 CecB peptides from 1.1 to 35.2 µM; final concentrations of tobramycin from 0.26 to 17 μM; each condition in triplicate). Microbial suspensions in the growing medium (positive control) and wells with only the medium (negative controls) were processed in parallel. Plates were incubated 24 h at 37 °C with agitation (300 rpm), and the absorbance was measured at 600 nm in a microplate reader. The MIC was considered as the lowest concentration determining a delta optical density at 600 nm (ΔOD600) equal to 0 ± 0.05. The ΔOD600 was determined by subtracting the OD600 recorded at time 0 from that obtained after 24 h. Each experiment was performed at least three times. […] For each sample, 100 μL of 1:10, 1:100, and 1:1000 dilutions were plated on LBA plates, and colonies were counted after 24 h at 37 °C. […] Each experiment was performed at least twice.

[6] = tested on: P. aeruginosa PAO1-L strain; assay: microbe, parasite or virus in culture; type: cell-based, Pseudomonas aeruginosa; conditions: Pseudomonas aeruginosa, value between parentheses, 24 h, 37 °C, plating on LBA
Protocol: as §3, §4

[7] = tested on: P. aeruginosa ATCC 25668, ATCC 27853, and PAO1-L strains; assay: microbe, parasite or virus in culture; type: cell-based, Pseudomonas aeruginosa; conditions: Pseudomonas aeruginosa; LB medium, 24 h, 37 °C, OD600; same value for all three strains; triplicate, at least three experiments
Protocol: as §3, §4

[8] = tested on: T1, human neutrophil elastase; assay: Enzymatic digestion with human neutrophil elastase, RP-HPLC; type: in vitro ADME; conditions: isolated enzyme elastase; peptide 1 mg/mL in 10 mM Tris-HCl pH 7.5, 20 U human leukocyte elastase, 37 °C, 5 h (300 min), RP-HPLC C18 peak integration; read-out: % of intact peptide
T1 construct: purchased Merck
Protocol: (§5) L- and D-Q53 CecB peptides, as well as the human LL-37 peptide (Merck, Burlington, MA, USA), were dissolved in 10 mM Tris-HCl, pH 7.5, at a final concentration of 1 mg/mL. Subsequently, 120 μL of each peptide solution were incubated at 37 °C with 20 U of human leukocyte elastase (Merck) or P. aeruginosa elastase (Elastin Products Company, Owensville, MO, USA) and 5 μL of 10 mM Tris-HCl, pH 7.5. At given time intervals (30, 60, 120, and 300 min), a volume corresponding to 30 μg of each peptide was diluted in 70 μL of 1% trifluoroacetic acid (TFA) to stop the reaction. Peptide suspensions,v without any enzyme (undigested controls), were processed in parallel. Each solution was analyzed by RP-HPLC, using a Phenomenex LC C18 analytical column (300 Å, […], 250 × 4.6 mm; Phenomenex, Torrance, CA, USA) and a Widepore C18 security guard cartridge (4 × 3.0 mm; Phenomenex, Torrance, CA, USA), in a 30 min-linear Acetonitrile (ACN) gradient (from 0% to 40% for L- and D-Q53 CecB peptides; from 20% to 60% for LL-37). A Waters Alliance 2695 Separations Module connected to a 996 PDA (Waters, Milford, MA, USA) was employed for RP-HPLC.

P. aeruginosa elastase = tested on: T2, P. aeruginosa elastase; assay: Enzymatic digestion with P. aeruginosa elastase, RP-HPLC; type: in vitro ADME; conditions: isolated enzyme elastase; peptide 1 mg/mL in 10 mM Tris-HCl pH 7.5, 20 U P. aeruginosa elastase, 37 °C, 30 min, RP-HPLC C18 peak integration; read-out: % of full-length peptide
T2 construct: purchased Elastin Products Company
Protocol: as §5

[9] = concentrations from 8 to 1 MIC (1 MIC = 2.2 µM peptides, 2.14 µM tobramycin), 24 h static, 37 °C, stated for both strains

SMILES | biofilm biomass vs untreated controls (biofilm formation) ([1]; 1/4 MIC) | biofilm biomass vs untreated controls (biofilm formation) ([1]; 1/8 MIC) | decrement in biofilm biomass vs untreated controls (inhibition of biofilm formation) [1, 9] | biofilm biomass vs untreated controls (biofilm formation) ([2]; 1/4 MIC) | biofilm biomass vs untreated controls (biofilm formation) ([2]; 1/8 MIC) | decrement in biofilm biomass vs untreated controls (inhibition of biofilm formation) [2, 9] | reduction of pre-formed biofilm biomass at all tested concentrations [3] | reduction of pre-formed biofilm biomass at all tested concentrations [4] | MBC [5] | MBC [6] | MIC [7] | remaining at 5 h, 1 mg/mL [8] | remaining at 0.5 h, 1 mg/mL (P. aeruginosa elastase)
NC[C@H]1O[C@H](O[C@H]2[C@H](O)[C@@H](O[C@H]3O[C@H](CO)[C@@H](O)[C@H](N)[C@H]3O)[C@H](N)C[C@@H]2N)[C@H](N)C[C@@H]1O [Tobramycin, reference compound] | not affected | not significantly different | ~ 99.9% | significantly higher | not significantly different | ~ 99.9% | not efficient | not efficient | 4.29 µM (≈ 2.01 µg/mL) | 8.56 µM (≈ 4 µg/mL) | 2.14 µM (≈ 1 µg/mL) | – | –
CC[C@H](C)[C@H](NC(=O)[C@H](CCCCN)NC(=O)[C@H](CCC(=O)O)NC(=O)[C@H](CCCCN)NC(=O)[C@H](CO)NC(=O)[C@H](CCCCN)NC(=O)[C@H](CCCNC(=N)N)NC(=O)[C@H](Cc1ccccc1)NC(=O)[C@H](Cc1ccccc1)NC(=O)[C@H](CC(=O)O)NC(=O)CNC(=O)[C@H](CC(C)C)NC(=O)[C@@H](N)CC(C)C)C(=O)NCC(=O)N[C@@H](CCCCN)C(=O)N[C@@H](CCC(=O)O)C(=O)N[C@@H](Cc1ccccc1)C(=O)N[C@@H](CCCCN)C(=O)N[C@@H](CCCNC(=N)N)C(=O)N[C@H](C(=O)N[C@H](C(=O)N[C@@H](CCC(N)=O)C(=O)N[C@@H](CCCNC(=N)N)C(=O)N[C@H](C(=O)N[C@@H](CCCCN)C(=O)N[C@@H](CC(=O)O)C(=O)N[C@@H](Cc1ccccc1)C(=O)N[C@@H](CC(C)C)C(=O)N[C@@H](CCCNC(=N)N)C(=O)N[C@@H](CC(N)=O)C(=O)N[C@@H](CC(C)C)C(=O)N[C@H](C(=O)N1CCC[C@H]1C(=O)N[C@@H](CCCNC(=N)N)C(=O)N[C@H](C(=O)N[C@@H](CCC(=O)O)C(=O)N[C@@H](CO)C(=O)O)[C@@H](C)O)C(C)C)[C@@H](C)CC)C(C)C)[C@@H](C)CC [LL-37, reference compound] | – | – | – | – | – | – | – | – | – | – | – | 8.7% | ~0.2%
